According to patent US7358249B2, “Heterocyclic compounds having inhibitory activity against HIV integrase” (Shionogi & Co., Ltd., priority 2002, dated 2008):

How the values were obtained:
HIV integrase = HIV integrase (Human immunodeficiency virus type 1 group M subtype B, UniProt P04585); assay: integrase inhibition assay (microtiter plate, substrate DNA / target DNA); assay type: biochemical; details: integrase 30 pmol, incubated at 30° C. for 1 hour, OD at 405 nm; concentration at percent inhibition 50%; read-out: MIA, IC50 (ug/ml) (converted)
Method: The inhibitory activities against integrase of the presnt compounds were determined by the assay described below.
(1) Preparation of DNA Solutions
Substrate DNA and target DNA synthesized by Amersham Pharmacia Biotech, which sequences were indicated below, were dissolved in KTE buffer (composition: 100 mM KCl, 1 mM EDTA, 10 mM Tris-HCl (pH 7.6)) at a concentration of 2 pmol/μl and 5 pmol/μl, respectively. The DNA solutions were heated and then slowly cooled so that they were annealed with each complement.
(Sequence of Substrate DNA)
(2) Calculations of the percent inhibitions (IC50 values of test compounds)
Streptavidin, obtained from Vector Laboratories, was dissolved in 0.1 M carbonate buffer (composition: 90 mM Na2CO3, 10 mM NaHCO3) at a concentration of 40 μg/ml. After coating each well of microtiter plates (obtained from NUNC) with 50 μl of the above solution at 4° C. over night, each well was washed twice with PBS (composition: […], 0.27 mM KCl, 0.43 mM Na2HPO4, 0.14 mM KH2PO4) and blocked with 300 μl of 1% skim milk in PBS for 30 min. Additionally, each well was washed twice with PBS and added with 50 μl of the substrate DNA solution (2 pmol/μl). The microtiter plates were kept at room temperature for 30 min. Then, each well was washed twice with PBS and once with H2O.
Subsequently, to the each well prepared above were added 45 μl of the reaction buffer prepared from 12 μl of the buffer (composition: 150 mM MOPS (pH 7.2), 75 mM MnCl2, 50 mM 2-mercaptoethanol, 25% glycerol, 500 μg/ml bovine serum albumin-fraction V), 1 μl of target DNA (5 pmol/μ), and 32 μl of the distilled water. Additionally, 6 μl of either a test compound in DMSO or DMSO for positive control (PC) was mixed with the above reaction buffer, then 9 μl of an integrase solution (30 pmol) was added thereto and the mixture was mixed well. To the well of negative control (NC) was added 9 μl of the integrase dilution buffer (composition: 20 mM MOPS (pH7.2), 400 mM potassium glutamate, 1 mM EDTA, 0.1% NP-40, 20% glycerol, 1 mM DTT, 4 M urea).
The microtiter plates were incubated at 30° C. for 1 hour. The reaction solution was removed and each well was washed twice with PBS. Subsequently, each well of the microtiter plates was filled with 100 μl of anti-digoxigenin antibody labeled with alkaline phosphatase (Sheep Fab fragment: obtained from Boehringer) and incubated at 30° C. for 1 hour. Then, each well was washed twice with 0.05% Tween20 in PBS and once with PBS. Next, 150 μl of the Alkaline phosphatase reaction buffer (composition: 10 mM p-Nitrophenylphosphate (obtained from Vector Laboratories), 5 mM MgCl2, 100 mM NaCl, 100 mM Tris-HCl (pH 9.5)) was added to each well. The microtiter plates were incubated at 30° C. for 2 hours and the reaction was terminated by the addition of 50 μl of 1 N NaOH solution. The optical density (OD) at 405 nm of each well was measured and the percent inhibition was determined by the following expression. The percent inhibition (%)=100[1−{(C abs.−NC abs.)/(PC abs.−NC abs.)}]
C abs.; the OD of the well of the test compound
NC abs.: the OD of the negative control (NC)
PC abs.: the OD of the positive control (PC)
When the percent inhibition (%) is X % at a concentration of x μg/ml and the percent inhibition (%) is Y % at a concentration of y μg/ml, one of which is more than 50% and the other is less than 50%, IC50 can be determined by the following expression. IC50 (μg/ml)=x−{(X−50)(x−y)/(X−Y)}
Compound No. in the Table 1 is the same as compound No. of the above Examples.

SMILES | IC50 (HIV integrase) | melting point
COC(=O)c1ncc2cc(Cc3ccc(F)cc3)cnc2c1O [Compound A-2, Methyl 3-(4-fluorobenzyl)-8-hydroxy-1,6-naphthylidine-7-carboxylate] | 416 nM | 218 to 219 °C
CN=C(Nc1cc(C(=O)OC)c(O)c2ncc(Cc3ccc(F)cc3)cc12)SC [Compound I-19, 5-(2,3-Dimethylisothioureido)-3-(4-fluorobenzyl)-8-hydroxyquinoline-7-carboxylic acid methylester] | 1040 nM | 198.5 to 199.5 °C
COCCC(=O)Nc1cc(C(=O)OC)c(O)c2ncc(Cc3ccc(F)cc3)cc12 [Compound I-182, 3-(4-Fluorobenzyl)-8-hydroxy-5-(3-methoxy-propionylamino)-quinoline-7-carboxylic acid methyl ester] | 461 nM | 190 to 192 °C
CNC(=O)c1nc(C#CCO)c2cc(Cc3ccc(F)cc3)cnc2c1O [Compound A-98, 3-(4-Fluorobenzyl)-8-hydroxy-5-(3-hydroxy-1-propyn-1-yl)-[1,6]naphthylidine-7-carboxylic acid methyl amide] | 520 nM | 185 °C
COCCC(=O)Nc1nc(C(=O)OC)c(O)c2ncc(Cc3ccc(F)cc3)cc12 [Compound A-34, 3-(4-Fluorobenzyl)-8-hydroxy-5-(3-methoxy-1-propionyl)amino[1,6]naphthylidine-7-carboxylic acid methyl ester] | 701 nM | 205 to 206 °C
